Test results reported in article PMC6163455 (Biomolecules, 2018).

What was measured:
CHO-K1 cells [1] = assay: live-cell confocal microscopy of β-lactamase internalization; format: cell-based, Chinese hamster; conditions: 4 µM conjugate with SpyC_BLA or unconjugated SpyC_BLA, 2 h, CCF2-AM 2 µM 1 h, Figure 2a–f
Method: (§1) Figure 2 Live-cell confocal microscopy visualizes CPP-mediated β-lactamase internalization. The CPP-mediated uptake of CPP_SpyT/SpyC_BLA conjugates (4 µM) was visualized in CHO-K1 cells (a–f) and T47D cells (g–n). SpyC_BLA was conjugated to CPP_SpyT peptides. […] The degree of uptake is CPP-dependent and visualized by blue fluorescing cells. Bar scale is 50 µm (a–j) or 14.6 µm (k–n).
(§2) Cells were seeded (CHO-K1, 37,500 cells/mL; T47D 37,500 cells/mL) onto 4-well ibiTreat chamber slides (Thermo Fisher Scientific) and incubated for 48 h at 37 °C, 5% CO2. The medium was removed and replaced with medium containing SpyC_BLA/CPP_SpyT conjugated or unconjugated SpyC_BLA proteins and cells were incubated for 2 h at 37 °C, 5% CO2. After incubation, the cells were washed to remove any SpyC_BLA protein that had not internalized, loaded with substrate CCF2-AM (2 µM final concentration in media containing 1% FCS), and incubated for 1 h at room temperature. Live cells were visualized through confocal microscopy. Images were collected using a Nikon C2 Confocal Microscope through a 40× differential interference contrast (DIC) objective after excitation by a 408 nm laser. Bar scales in images represent 50 µm or 14.6 µm (zoom magnification 3.4×).

T47D cells [2] = assay: as above; format: cell-based, human; conditions: 4 µM conjugate with SpyC_BLA or unconjugated SpyC_BLA, 2 h, CCF2-AM 1 h, Figure 2g–n
Method: as §1, §2

CHO-K1 cells [3] = assay: cell fractionation and anti-β-lactamase immunoblotting; format: cell-based, Chinese hamster; conditions: 8 µM, 1.5 h at 37 °C, digitonin cytosol extraction, 4 µg aliquots, anti-β-lactamase antibody, Figure S1
Method: Supplementary Information
Supplementary Figures: β-Lactamase Tools for Establishing Cell Internalization and Cytosolic
Delivery of Cell Penetrating Peptides
Figure S1. Verification of cell penetrating peptides (CPP)-mediated β-lactamase internalization by immunoblotting. MW: molecular weight.
Aliquots (4 µg) of cytosolic and membrane soluble CHO-K1 cell fractions from β-lactamase assays were separated by sodium dodecyl sulfate–polyacrylamide gel electrophoresis (SDS-PAGE) through a 4-12% (w/v) polyacrylamide Bis-Tris gel, transferred to polyvinylidene difluoride (PVDF) membrane, and immunoblotted. β-lactamase conjugated (e.g., 1746_SpyT/SpyC_BLA) or fused (e.g., 1746_BLA recombinant) to 1746c27 and 1746 Phylomer cell penetrating peptides (CPPs) was detected in the cytosolic fraction to varying extents, while TAT-conjugated β-lactamase was predominantly detected in the membrane fraction of cell lysates. […]
delivered into the cytosol by the 1746 CPP. Internalization of unconjugated SpyC_BLA protein was not detected, either on its own (SpyC_BLA (no CPP)) or in the presence of 1746c27 peptide (1746c27, SpyC_BLA), illustrating there is no bystander uptake effect. […]
Aliquots of extracted fractions (4 µg) were separated through a 4–12% Bis-Tris gel (Invitrogen, Carlsbad, CA, USA). Protein expression in the fractions was detected using monoclonal anti-β- […]

T47D cells [4] = assay: β-lactamase internalization assay (CCF2-AM, flow cytometry); format: cell-based, human; conditions: CPP_SpyT/SpyC_BLA conjugates or unconjugated SpyC_BLA, 1 h at 37 °C, CCF2-AM 1 µM, Figure 1c, No CPP control n = 3
Method: (§3) The β-lactamase internalization assay is based on the simple principle that CPP-dependent intracellular delivery of recombinant β-lactamase protein can be detected by cleavage of the CCF2 substrate in the cytosol (Figure 1a). In brief, CPP sequences and the β-lactamase cargo protein can be brought together by conjugation or can be recombinantly expressed as a CPP_β-lactamase (CPP_BLA) fusion (Figure 1a, step i). The CPP_BLA protein fusions or conjugates are incubated on cells, which are then washed to remove excess protein that has not internalized (Figure 1a, step ii). The cells are incubated further (i.e., loaded) with the CCF2-AM cell-permeable dye for 1 h (Figure 1a, step iii). Once inside the cell, CCF2-AM is converted by endogenous cytoplasmic esterases to CCF2, which is retained in the cytosol. In cells where β-lactamase has internalized through CPP activity, CCF2 is cleaved by β-lactamase (Figure 1a, step iv). This reaction is measured as a shift in fluorescent signal from green to blue. […]
(§4) To validate the assay, we first used a conjugation approach based on the SpyTag (SpyT) peptide/SpyCatcher (SpyC) protein ligation technology. […] Protein conjugates were incubated on CHO-K1 or T47D cells, measuring the fluorescence shift as percentage of blue fluorescent CHO-K1 or T47D cells after 1 h (Figure 1b,c, respectively). […]

CHO-K1 cells [5] = assay: as above; format: cell-based, Chinese hamster
Method: as §3, with “Once inside the cell, CCF2-AM is converted by endogenous cytoplasmic esterases to CCF2, which is retained in the cytosol. In cells where β-lactamase has internalized through CPP activity, CCF2 is cleaved by β-lactamase (Figure 1a, step iv).” left out
as §4
The two phylomer CPPs with the strongest β-lactamase internalization signal and the canonical CPP TAT (positive control) were expressed as direct fusions with β-lactamase (CPP_BLA proteins; sequences in Table A2). […]

Substance | uptake of SpyC_BLA visualized by blue fluorescing cells (CHO-K1 cells [1]) | uptake of SpyC_BLA visualized by blue fluorescing cells (T47D cells [2]) | β-lactamase detected in cytosolic and membrane cell fractions (immunoblot) (CHO-K1 cells [3]) | internalization of CPP-conjugated SpyC_BLA (percentage of blue viable cells) (T47D cells [4]) | internalization of CPP-conjugated SpyC_BLA (percentage of blue viable cells) (CHO-K1 cells [5]; CPP_SpyT/SpyC_BLA conjugates or unconjugated SpyC_BLA, 0.5–4 µM, 1 h at 37 °C, CCF2-AM 2 µM, Figure 1b, No CPP control n = 7) | internalization of recombinantly expressed CPP_β-lactamase fusion protein (percentage of blue viable cells) (CHO-K1 cells [5]; recombinant CPP_BLA fusion proteins, SpyC_BLA as negative control, Figure 1d)
RKQKSLQTKLAENPPVPRKKRQSRPRWKQWLQKGASAHIVMVDAYKPTKG [0084_SpyT, phylomer CPP 0084 synthesized as SpyTag fusion] | enabled CPP-dependent uptake of SpyC_BLA | – | – | – | – | –
GRKKRRQRRRGASAHIVMVDAYKPTKG [TAT_SpyT, reference compound] | enabled CPP-dependent uptake of SpyC_BLA | enabled CPP-dependent uptake of SpyC_BLA | – | – | – | –
PLKPKKPKTQEKKKKQPPKPKKPKTQEKKKKQPPKPKRGASAHIVMVDAYKPTKG [1746_SpyT, phylomer CPP 1746 synthesized as SpyTag fusion] | enabled CPP-dependent uptake of SpyC_BLA | enabled CPP-dependent uptake of SpyC_BLA | – | – | – | –
PLTQRTLQRGKKPKQRQNWKKARTSSAKTAPKTVVSRTTSQRKGASAHIVMVDAYKPTKG [0169_SpyT, phylomer CPP 0169 synthesized as SpyTag fusion] | enabled CPP-dependent uptake of SpyC_BLA | – | – | – | – | –
SpyC_BLA: recombinantly expressed SpyCatcher_β-lactamase protein; unconjugated it is the 'No CPP' negative control | minimal evidence of internalization | minimal evidence of internalization | not detected | does not internalize | does not internalize | does not internalize
KKKKQPPKPKKPKTQEKKKKQPPKPKRGASAHIVMVDAYKPTKG [1746c27_SpyT, phylomer CPP 1746c27 synthesized as SpyTag fusion] | enabled CPP-dependent uptake of SpyC_BLA | enabled CPP-dependent uptake of SpyC_BLA | – | – | – | –
